Data taken from ChEMBL document CHEMBL5512608, “Therapeutic potential of targeting polo-like kinase 4” (Eur J Med Chem, 2024).
Blank lines part the entries; values can stand above or below the molecule they belong to.

Legend:
MDA-MB-468 = test: Antitumor activity against human MDA-MB-468 cells xenografted in nude mouse assessed as tumor growth inhibition at 20 mg/kg, po relative to control; type: functional; conditions: read-out: TGI
[1] = Antiproliferative activity against human TNBC cells assessed as reduction in cell viability; type: functional, cell-based; conditions: Breast carcinoma cell
[2] = Selectivity ratio of Ki for PLK4 (unknown origin) to Ki for AURORA-A (unknown origin)
[3] = target: Serine/threonine-protein kinase PLK2 (Homo sapiens, UniProt Q9NYY3); test: Inhibition of full length PLK2 (unknown origin)
[4] = target: T1, Serine/threonine-protein kinase PLK4 (Homo sapiens, UniProt O00444); test: Inhibition of PLK4 (unknown origin)
T1 sequence (O00444 whole entry): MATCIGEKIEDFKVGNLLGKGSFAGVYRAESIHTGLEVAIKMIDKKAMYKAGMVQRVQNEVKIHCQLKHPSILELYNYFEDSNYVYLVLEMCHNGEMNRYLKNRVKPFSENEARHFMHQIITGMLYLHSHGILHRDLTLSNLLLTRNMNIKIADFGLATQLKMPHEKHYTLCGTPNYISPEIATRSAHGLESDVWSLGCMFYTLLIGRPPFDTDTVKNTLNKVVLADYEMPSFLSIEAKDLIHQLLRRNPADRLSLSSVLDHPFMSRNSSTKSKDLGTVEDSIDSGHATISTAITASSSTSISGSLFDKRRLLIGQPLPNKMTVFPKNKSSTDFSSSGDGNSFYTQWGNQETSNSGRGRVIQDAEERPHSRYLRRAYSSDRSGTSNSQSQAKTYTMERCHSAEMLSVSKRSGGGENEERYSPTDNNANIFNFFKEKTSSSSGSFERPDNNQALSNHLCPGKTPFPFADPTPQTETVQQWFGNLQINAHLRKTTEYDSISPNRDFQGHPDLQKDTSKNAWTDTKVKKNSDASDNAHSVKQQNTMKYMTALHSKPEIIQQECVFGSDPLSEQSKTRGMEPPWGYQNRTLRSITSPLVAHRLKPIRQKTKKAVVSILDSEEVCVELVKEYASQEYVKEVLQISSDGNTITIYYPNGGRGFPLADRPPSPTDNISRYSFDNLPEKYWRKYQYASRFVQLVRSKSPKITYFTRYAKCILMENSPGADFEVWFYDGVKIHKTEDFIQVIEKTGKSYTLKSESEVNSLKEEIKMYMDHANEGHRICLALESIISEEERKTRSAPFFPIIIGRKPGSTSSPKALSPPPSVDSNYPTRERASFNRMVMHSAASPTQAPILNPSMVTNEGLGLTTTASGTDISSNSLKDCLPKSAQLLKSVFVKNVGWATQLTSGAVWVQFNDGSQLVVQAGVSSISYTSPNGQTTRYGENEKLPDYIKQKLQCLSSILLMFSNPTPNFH

HCT-116 = test: Antiproliferative activity against human HCT-116 cells assessed as reduction in cell viability measured after 72 hrs by AlamarBlue assay; type: functional, cell-based; conditions: HCT-116, 72 h
MDA-MB-231 = test: Antiproliferative activity against human MDA-MB-231 cells assessed as reduction in cell viability measured after 72 hrs by AlamarBlue assay; type: functional, cell-based; conditions: MDA-MB-231, 72 h
U-87 MG = test: Antiproliferative activity against human U-87 MG cells assessed as reduction in cell viability measured after 72 hrs by AlamarBlue assay; type: functional, cell-based, U-87MG ATCC
A2780 = test: Antiproliferative activity against human A2780 cells assessed as reduction in cell viability measured after 72 hrs by AlamarBlue assay; type: functional, cell-based; conditions: A2780, 72 h
NCI-H1299 = test: Antiproliferative activity against human NCI-H1299 cells assessed as reduction in cell viability measured after 72 hrs by AlamarBlue assay; type: functional, cell-based; conditions: NCI-H1299, 72 h
[5] = target: T1, Serine/threonine-protein kinase PLK4; test: Binding affinity to PLK4 (unknown origin) assessed as inhibition constant

Serine/threonine-protein kinase PLK2, sequence (Q9NYY3 whole entry): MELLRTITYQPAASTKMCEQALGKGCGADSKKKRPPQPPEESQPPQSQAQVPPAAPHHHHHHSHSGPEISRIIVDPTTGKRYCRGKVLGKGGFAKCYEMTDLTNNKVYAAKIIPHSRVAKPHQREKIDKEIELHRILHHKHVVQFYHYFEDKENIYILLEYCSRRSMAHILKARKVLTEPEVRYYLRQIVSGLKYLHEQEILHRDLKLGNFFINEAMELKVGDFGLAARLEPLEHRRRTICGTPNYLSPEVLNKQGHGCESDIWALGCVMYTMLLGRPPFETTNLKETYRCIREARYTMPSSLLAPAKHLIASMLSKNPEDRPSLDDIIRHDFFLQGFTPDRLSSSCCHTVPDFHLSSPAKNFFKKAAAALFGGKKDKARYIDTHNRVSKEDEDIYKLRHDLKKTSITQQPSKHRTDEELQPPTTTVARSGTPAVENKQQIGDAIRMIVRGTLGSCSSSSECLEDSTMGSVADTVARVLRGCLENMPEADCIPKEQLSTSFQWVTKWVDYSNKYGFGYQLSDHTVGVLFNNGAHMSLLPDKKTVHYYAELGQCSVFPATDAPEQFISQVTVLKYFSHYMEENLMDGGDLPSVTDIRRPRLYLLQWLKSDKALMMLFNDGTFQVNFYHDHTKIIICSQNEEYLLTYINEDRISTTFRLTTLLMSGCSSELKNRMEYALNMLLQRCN

SMILES: CC(=O)Nc1nccc(-c2ccc3c(/C=C/c4ccc(CN(C)C)cc4)n[nH]c3c2)n1
inhibition in vivo at 20 mg/kg (MDA-MB-468): 80% | IC50 [1]: 60 nM

SMILES: COCCOc1ccc2cc1OCC(=O)N(C)CCCN(C)Cc1c[nH]c3ncnc(c13)N2
IC50 (HCT-116): 5 nM | IC50 (MDA-MB-231): 5 nM | IC50 (U-87 MG): 5 nM | IC50 (A2780): 5 nM | IC50 (NCI-H1299): 5 nM

SMILES: COc1c(Nc2cc(C)[nH]n2)nc(Sc2ccc(NC(=O)C3CC3)cc2)nc1N1CCN(C)CC1
Ki [5]: 15 nM | Ratio Ki [2]: 15

The next lines start with results.

Ratio Ki [2]: 2100
SMILES: COc1c(Nc2cc(C)[nH]n2)nc(Sc2ccc(S(=O)(=O)Cc3cccc([N+](=O)[O-])c3F)cc2F)nc1N1CCCCC1

IC50 [3]: > 19000 nM
SMILES: Cn1c2ccccc2c2c3c(c4c5ccccc5n(CCC#N)c4c21)CNC3=O [GO-6976]

IC50 [4]: 27 nM
SMILES: CNC(=O)c1ccccc1Nc1nc(Nc2ccc(S(C)(=O)=O)cc2)nc2[nH]ncc12

IC50 [4]: 2100 nM
SMILES: c1ccc(CNc2nc(Nc3cccc(N4CCOCC4)c3)nc3[nH]ncc23)cc1

IC50 [4]: 11.2 nM
SMILES: CN(C)Cc1ccc(/C=C/c2n[nH]c3cc(-c4ccnc(N)n4)ccc23)cc1
inhibition in vivo at 20 mg/kg (MDA-MB-468): 80% | IC50 [1]: 60 nM
